According to US20230172914A1, “BIOMARKER-BASED THERAPEUTIC COMPOSITION” (WELLMARKER BIO CO., LTD., priority 2019, published 2023):

Columns and labels:
[1] = tested on: KM12C (RONΔ160); assay: Cell death-inducing ability, trypan blue exclusion, KM12C; assay type: cell-based, human; conditions: 48 hours
Description: The cell death-inducing ability of Example 18 and Comparative Example 1 was measured in KM12C with RON mutant (Δ160), a cetuximab-resistant cell line, and Colo320HSR cell line, a cell line not expressing RON. The two colon cancer cell lines were seeded, respectively, onto 60-mm plates at 2×10^5 cells. Then, after 24 hours, while performing medium exchange, the cells were subjected to treatment with the sample compounds at respective concentrations (1 μM, 5 μM) for 48 hours. After 48 hours, the cells and cell suspensions were collected (1,500 rpm, 3 minutes), and live cells and dead cells were quantitated (n=2) through trypan blue (15250-061, Gibco) exclusion assay.

[2] = tested on: active RON (pTyr-RON); assay: Western blotting of active RON in KM12C; assay type: cell-based, human
Description: The cell killing efficacy of Example 18 and Comparative Example 1 was analyzed, and then the cells were collected. Western blotting was performed to identify inhibitory capacity of Example 18 on active RON. RIPA Lysis Buffer (T&I) was added to the respective cells so as to achieve lysis. Then, BCA kit (Pierce) was used to quantify proteins. The proteins were loaded onto 6% SDS-polyacrylamide with a protein concentration of 40 μg, and electrophoresis was performed at 125 V.
(§1) Subsequently, the proteins were reacted with primary antibody (active RON, beta actin), which was diluted 1:1,000 in 5% non-fat skim milk-TBST solution, at 4° C. for 24 hours or 48 hours. Then, washing with TBST was performed three times. The resultant was reacted with anti-rabbit and anti-mouse IgG conjugated horseradish peroxidase (HRP) secondary antibody, which was diluted at 1:1,000, at room temperature for 2 hours. Then, washing with TBST was washed three times. Subsequently, the membrane was treated with the ECL solution (GE Healthcare), and developed by exposure to an X-ray film. Then, the bands were checked.

[3] = tested on: Colo320HSR cell line overexpressing RON mutants (mt #1: Δ160, mt #2: Δ155); assay: Drug efficacy after overexpression of RON mutants in Colo320HSR (trypan blue, Western blotting); assay type: cell-based
Description: Efficacy analysis for RON mutants was performed by overexpressing RON mutants, and then identifying cell death-inducing ability through Western blotting. Colo320HSR cell line was seeded onto a 100-mm plate, and then a RON mutant #1 (Δ160)- or RON mutant #2 (Δ155)-expressing vector was introduced into the cell line using a transfection solution (Polyplus). After 24 hours, the cell line was seeded onto a 60-mm plate at 2×10^5 cells. Then, after 24 hours, while performing medium exchange, the cells were subjected to treatment with Example 18 at respective concentrations (1 μM, 5 μM) for 48 hours.
After 48 hours, the cells and cell suspensions were collected (1,500 rpm, 3 minutes), and live cells and dead cells were quantitated (n=2) through trypan blue exclusion assay. Subsequently, the remaining cells were collected and lysed by adding RIPA Lysis Buffer (T&I) to the respective cells for the purpose of identifying, with Western blotting, inhibitory capacity on active RON and cell death-inducing ability. Then, proteins were quantified by BCA kit (Pierce).
as §1, with “primary antibodies” for “primary antibody”, “RON, cleaved caspase-3,” for “RON,”, “which were” for “which was”, “secondary antibodies,” for “secondary antibody,”

[4] = tested on: colon cancer patient-derived cancer tissue (RON mutant: Δ160); assay: Efficacy in animal model transplanted with colon cancer patient tissue, 50 mpk; assay type: in vivo, BALB/c nude mice; conditions: 50 mpk oral, daily for 4 weeks
Description: 5-week-old female BALB/c nude mice were purchased and acclimatized for 1 week. Then, colon cancer patient-derived cancer tissue was transplanted into the right dorsal side of the mice. Example 18 was orally administered when the tumor reached a size of about 100 mm^3. The drug was administered once a day for 4 weeks, and tumor size and body weight were measured twice a week to perform comparative analysis. After completion of the drug administration, the experimental animals were euthanized, and then the tumors were extracted and weighed to perform comparative analysis.
As a result, it was identifiable that tumor growth is inhibited in a case where Example 18 is administered to an animal model (RON mutant: Δ160) into which tumor cells in colon cancer patients have been transplanted. The drug was orally administered on a daily basis, and the dose used was 50 mpk. As a result of drug administration for 4 weeks, it was identified that tumor growth is inhibited by 80% or more (FIG. 18). In addition, after completion of the drug administration, the tumor tissues were extracted and weighed to perform comparative analysis. […] The lower pictures of FIG. 19 show tumors extracted from representative individuals of the respective groups.

[5] = tested on: colon cancer patient tissue (active RON/RON mutant #1: Δ160); assay: Efficacy in animal model transplanted with colon cancer patient tissue, 30 mpk; assay type: in vivo; conditions: 30 mpk for 4 weeks
Description: Example 18 and Comparative Example 1 were administered to an animal model transplanted with the same patient tissue (active RON/RON mutant #1: Δ160) cells as in the animal model transplanted with colon cancer patient tissue tumor cells at 30 mpk for 4 weeks. […] The lower pictures of FIG. 21 show tumors extracted from representative individuals of the respective groups.

[6] = RON mutant-transfected Colo320HSR

CCOc1ccn(-c2ccc(F)cc2)c(=O)c1C(=O)Nc1ccc(Oc2ccnc3cc(-c4ccc(CN5CCOCC5)cn4)sc23)c(F)c1.Cl [Example 18, 4-ethoxy-N-[3-fluoro-4-({2-[5-(morpholinomethyl)pyridin-2-yl]thieno[3,2-b]pyridine-7-yl}oxy)phenyl]-1-(4-fluorophenyl)-2-oxo-1,2-dihydropyridine-3-carboxamide hydrochloride]
Cell death, KM12C (RONΔ160) ([1]; 1 μM): 29.0 | Cell death, KM12C (RONΔ160) ([1]; 5 μM): 35.2 | expression of active RON (Western blotting) [2]: decreases | cell death (trypan blue exclusion assay) ([3]; 1 μM, 5 μM, 48 hours, group transfected with RON mutant): cell death induction at the respective concentrations is observed | active RON expression level (Western blotting) [3, 6]: decreased expression level | cleaved caspase 3 expression level (Western blotting) [3, 6]: increased expression level | tumor growth inhibition (extracted tumor weight) compared with the vehicle [4]: about 83% | tumor growth inhibition (tumor size) [4]: ≥ 80% | tumor growth inhibition efficacy [5]: about 73%
